Results as given in US20260168987A1, “OBLIQUE LINE SCANNER SYSTEMS AND METHODS FOR HIGH THROUGHPUT SINGLE MOLECULE TRACKING IN LIVING CELLS” (EIKON THERAPEUTICS, INC., priority 2022, published 2026).

System: Halo-PCNA U2OS cells
Assay: Cell cycle phase assignment by machine learning model in Halo-PCNA U2OS cells
Format: cell-based
Conditions: 2 mM Thymidine (S-phase block) or RO-3306 (G2-M block) per FIG. 20B legend
Experimental: Time-lapse microscopy was conducted on Halo-PCNA labeled with 50 nM JFX650, to achieve near-saturating labeling, for 12 hours at 12 frames per hour (FIG. 21A). A machine learning model was then trained using both manually assigned cell stages and time-based progression resulting in both a G1, early S, mid S, late S, G2 and mitosis classifier as well as a regression prediction across the continuum of the cell cycle (FIG. 21B). The predicted cell cycle classification performed well as compared to manual annotation (FIG. 21C). Clear progression of individual cells through the cell cycle was observed when regression prediction was plotted across the time series (FIG. 21D). […] When cells in each cell phase were analyzed separately, it became apparent that the slow-moving population of PCNA was exclusively found in cell predicted to be in S-phase and that there was a marked decrease in the fast-moving population (FIG. 20E). Mean diffusion coefficient of PCNA was then measured for 4,081 individual cells to characterize heterogeneity across the cell population, which is described in large part by cell cycle (FIG. 20F).
Cell cycle as provided above can be automatically determined using an image (e.g., an image of JF549-labeled PCNA). […]

Structure (SMILES) | fraction of cells assigned to cell phases
O=C1NC(=NCc2cccs2)S/C1=C\c1ccc2ncccc2c1 [RO-3306] | expected enrichment in the fraction of cells assigned to the respective cell phases
Cc1cn([C@H]2C[C@H](O)[C@@H](CO)O2)c(=O)[nH]c1=O [thymidine] | expected enrichment in the fraction of cells assigned to the respective cell phases
